Patent US9895331B2, “Prophylactic and/or therapeutic agent for radiation damage” (The University of Tokyo, priority 2012, dated 2018)

What was measured:
Type in all cases: in vivo, C57BL/6 mice
[1] = system: mouse suffering from radiation damage; experiment: Radiation damage-alleviating effect of 5-ALA in irradiated mice (survival rate, body weight, appearance); settings: for body weight vs non-ALA administration group / body weight, p vs non-ALA administration group: eleven days after irradiation; for body weight vs non-ALA administration group / body weight, p vs non-ALA administration group / changes in appearance: total 8 Gy
Excerpt: (§1) Male 8-week-old C57BL/6 mice were purchased from Japan SLC, Inc. and mice that appeared healthy by visual inspection on the day of arrival were subjected to the test. On the day after arrival, based on the body weight, the mice were divided into three groups of 10 mice per group by random sampling, and further, one group was divided into three, three, and four mice per cage. The mice were allowed to feed on the basic feed MF manufactured by Oriental Yeast Co., Ltd. and tap water ad libitum and reared in a rearing room at a room temperature of 23 to 24° C., a humidity of 30 to 40%, and under 12 hours of fluorescent lamp lighting.
The mice were divided into three groups of [1] to [3], each receiving a different drug, as shown below. Group; Non-5-ALA administration group (10 mice) Group; 5-ALA hydrochloride 10 mg/kg body weight administration group (10 mice) Group; 5-ALA hydrochloride 100 mg/kg body weight administration group (10 mice)
Using Pantac HF350 (200 KV, 20 mA Filter: Cu 0.1 mm+Al 0.5 mm), the mice were irradiated with 4 Gy of radiation twice at a 3-hour interval (a total of 8 Gy).
After initiation of irradiation, water was forcedly administered to the aforementioned group, and an aqueous solution of 5-ALA hydrochloride was forcedly administered to the aforementioned groups and [3] every day in the stomach through a feeding tube.
Setting the day of irradiation at day 0, survival up to day 21 was checked. A mouse that survived for 21 days was judged as alive. […] Also, when the death was confirmed in the morning hours, the death was judged to have occurred on the previous day.
At the time of confirmation of survival in (5) above, body weight was simultaneously measured.
During the measurement in (5) above, it was examined whether there was any change in appearance between the administration group and non-administration group.

[2] = system: mouse suffering from radiation damage; experiment: Test for studying the establishment of an assessment model (body weight, blood cell count by flow cytometer; 3.5, 4.0, 4.5 Gy)
Excerpt: as §1, with “10” for “three”, “four” for “10”, “each” for “further, one”, “kept in one” for “divided into three, three, and four mice per”
The mice were divided into 10 groups, including nine groups of 1) to 9), each receiving a different drug and exposed to a different radiation dose, and an untreated group, as shown below.
Groups 1) to 3); Three non-5-ALA administration groups, each irradiated with 3.5 Gy, 4.0 Gy, or 4.5 Gy
Groups 4) to 6); Three 5-ALA hydrochloride 100 mg/kg body weight administration groups, each irradiated with 3.5 Gy, 4.0 Gy, or 4.5 Gy
Groups 7) to 9); Three 5-ALA hydrochloride 100 mg+SFC 157 mg/kg body weight administration groups, each irradiated with 3.5 Gy, 4.0 Gy, or 4.5 Gy […]
Setting the day of irradiation at day 0, the body weight was measured two days before initiation of irradiation (day −2), and on day 0, day 3, day 5, and day 7.
The group of cells obtained from the bone marrow, spleen, and thymus were analyzed by a flow cytometer. […]
(§2) The results of analyzing the group of cells obtained from the bone marrow, spleen, and thymus by a flow cytometer are shown in FIG. 4. The number of bone marrow cells was counted as a sum of B cells, T cells, polymorphonuclear leukocytes (neutrophils), monocytes, and Ery I to IV. The number of thymocytes was counted as a sum of the number of CD4SP, CD8SP, DN, and DP. The number of spleen cells was counted as a sum of B cells, T cells, polymorphonuclear leukocytes (neutrophils), monocytes, and Ery I to IV.

[3] = system: mouse suffering from radiation damage; experiment: Assessment test for hematopoiesis-promoting effect (body weight, blood cell count by flow cytometer; 4.0 Gy); settings: 5-ALA hydrochloride 100 mg/kg
Excerpt: Male 8-week-old C57BL/6 mice were purchased from Japan SLC, Inc. and mice that appeared healthy by visual inspection on the day of arrival were subjected to the test. On the day after arrival, based on the body weight, the mice were divided into three groups of eight mice per group by random sampling, and further, one group was divided into four mice per cage. Also, as an untreated group, one group of four mice was kept in one cage. The mice were allowed to feed on the basic feed MF manufactured by Oriental Yeast Co., Ltd. and tap water ad libitum and reared in a rearing room at a room temperature of 23 to 24° C., a humidity of 30 to 40%, and under 12 hours of fluorescent lamp lighting.
The mice were divided into four groups, including three groups a) to c), each receiving a different drug, and an untreated group, as shown below.
Group a); Non-5-ALA administration group
Group b); 5-ALA hydrochloride 100 mg/kg body weight administration group
Group c); 5-ALA hydrochloride 100 mg+SFC 157 mg/kg body weight administration group
Using Pantac HF350 (200 KV, 20 mA Filter: Cu 0.1 mm+Al 0.5 mm), the mice were collectively irradiated with a radiation dose of 4.0 Gy on day 0.
From two days before initiation of irradiation (day −2) to day 6, water was forcedly administered to the aforementioned group a), an aqueous solution of 5-ALA hydrochloride was forcedly administered to the aforementioned group b), and an aqueous solution of 5-ALA hydrochloride and SFC was forcedly administered to the aforementioned group c) every day in the stomach through a feeding tube.
Setting the day of irradiation at day 0, the body weight was measured two days before initiation of irradiation (day −2), and on day 0, day 3, and day 6.
The group of cells obtained from the bone marrow, spleen, and thymus were analyzed by a flow cytometer. As an index for identifying each cell, the markers shown in the above [Table 2] were each used.
as §2, with “6.” for “4.”

Question: How did the “survival rate, p (Logrank method) vs non-ALA administration group” value ([1]; 10 mg/kg, 4 Gy twice (total 8 Gy), up to day 21) turn out when `NCC(=O)CCC(=O)O` [ALA, 5-aminolevulinic acid] was run?
Answer: 0.161

Question: What about the “body weight vs non-ALA administration group” value ([1]; 10 mg/kg) of the same molecule?
Answer: significant difference

Question: And the “body weight, p vs non-ALA administration group” value ([1]; 10 mg/kg)?
Answer: 0.03556

Question: And the changes in appearance ([1]; 10 mg/kg, vs non-ALA group)?
Answer: milder piloerection

Question: What about the survival rate ([1]; 100 mg/kg daily intragastric after irradiation, 4 Gy twice (total 8 Gy), up to day 21, vs non-ALA group) of the same molecule?
Answer: significantly improved

Question: What about the “survival rate, p (Logrank method) vs non-ALA administration group” value ([1]; 100 mg/kg, 4 Gy twice (total 8 Gy), up to day 21) of the same molecule?
Answer: 0.0289

Question: What about the “body weight vs non-ALA administration group” value ([1]; 100 mg/kg) of the same molecule?
Answer: significant difference

Question: What about the “body weight, p vs non-ALA administration group” value ([1]; 100 mg/kg) of the same molecule?
Answer: 0.03456

Question: What about the changes in appearance ([1]; 100 mg/kg, vs non-ALA group) of the same molecule?
Answer: milder piloerection

Question: What about the “other items of blood cell count (bone marrow, thymus, spleen; other doses and groups)” value ([2]; 3.5 to 4.5 Gy, vs H2O control group) of the same molecule?
Answer: no significant difference

Question: And the “cell count in each organ (bone marrow, spleen, thymus)” value ([2]; 4.0 Gy, 5-ALA hydrochloride 100 mg/kg)?
Answer: stable improvement tendency

Question: What about the spleen cell count ([2]; 4.0 Gy, 5-ALA hydrochloride 100 mg/kg, day -2 to day 6, vs H2O control group) of the same molecule?
Answer: significant improvement

Question: And the “number of B cells among the bone marrow cells” value ([3]; bone marrow)?
Answer: tendency of improvement

Question: And the “number of bone marrow TER119+ erythroid progenitor cells” value ([3]; bone marrow)?
Answer: tendency of improvement

Question: And the “number of monocytes among the bone marrow cells” value ([3]; bone marrow)?
Answer: tendency of improvement

Question: And the “number of B cells among the spleen cells” value ([3]; spleen)?
Answer: statistically significant improvement

Question: And the “number of CD11b+ cells among the spleen cells” value ([3]; spleen)?
Answer: tendency of improvement

Question: What about the “number of polymorphonuclear leukocytes among the spleen cells” value ([3]; spleen) of the same molecule?
Answer: tendency of improvement

Question: What about the “number of the erythroid progenitor cell Ery IV among the spleen cells” value ([3]; spleen) of the same molecule?
Answer: improved with statistical significance

Question: What about the spleen cell count ([3]; without or with SFC 157 mg/kg, day -2 to day 6, vs H2O control group) of the same molecule?
Answer: significant improvement

Question: What about the “number of T cells among the spleen cells” value ([3]; without or with SFC 157 mg/kg, spleen) of the same molecule?
Answer: tendency of improvement
